Assay results: ChEMBL document CHEMBL5131432, “Novel 2,4-disubstituted quinazoline analogs as antibacterial agents with improved cytotoxicity profile: Modification of the benzenoid part” (Bioorg Med Chem Lett, 2022)
Values after ≈ are worked out from the molar mass of the structure shown.

Assays:
Escherichia coli [1] = test: Antibacterial activity against Escherichia coli K12 harbouring TolC-deficient mutant assessed as bacterial growth inhibition; assay type: functional
Staphylococcus aureus [2] = test: Antibacterial activity against methicillin-resistant and vancomycin-intermediate Staphylococcus aureus Mu50 assessed as bacterial growth inhibition; assay type: functional
Staphylococcus aureus [3] = test: Antibacterial activity against methicillin-sensitive Staphylococcus aureus Newman assessed as bacterial growth inhibition; assay type: functional
Escherichia coli [4] = test: Antibacterial activity against wild type Escherichia coli DSM-11116 assessed as bacterial growth inhibition; assay type: functional
Enterococcus faecalis = test: Antibacterial activity against Enterococcus faecalis DSM-20478 assessed as bacterial growth inhibition; assay type: functional
Streptococcus pneumoniae [5] = test: Antibacterial activity against penicillin-resistant Streptococcus pneumoniae DSM-11865 assessed as bacterial growth inhibition; assay type: functional
[6] = test system: Mycolicibacterium smegmatis; test: Antibacterial activity against Mycobacterium smegmatis mc2 155 assessed as bacterial growth inhibition; assay type: functional
Streptococcus pneumoniae [7] = test: Antibacterial activity against Streptococcus pneumoniae DSM-20566 assessed as bacterial growth inhibition; assay type: functional
Staphylococcus aureus [8] = test: Antibacterial activity against methicillin-resistant Staphylococcus aureus N315 assessed as bacterial growth inhibition; assay type: functional
Enterococcus faecium = test: Antibacterial activity against Enterococcus faecium DSM-20477 assessed as bacterial growth inhibition; assay type: functional
[9] = Stability of the compound in presence of 25kGy gamma irradiation assessed as change in mass and purity by LC-MS analysis; assay type: physicochemical
[10] = Chemical stability of compound in DMSO assessed as change in retardation factor incubated for 2 days; assay type: physicochemical; conditions: 48 h; time 2 day
[11] = Chemical stability of compound in DMSO assessed as change in physico-chemical properties incubated for 2 days; assay type: physicochemical; conditions: 48 h; time 2 day
[12] = Chemical stability of compound in DMSO assessed as change in mass and purity incubated for 2 days by LC-MS analysis; assay type: physicochemical; conditions: 48 h; time 2 day
[13] = Cytotoxicity against human HepG2 cells assessed as inhibition of cell growth; assay type: toxicity, cell-based

| SMILES | MIC (Escherichia coli [1]) [µg/mL] | MIC (Staphylococcus aureus [2]) [µg/mL] | MIC (Staphylococcus aureus [3]) [µg/mL] | MIC (Escherichia coli [4]) [µg/mL] | MIC (Enterococcus faecalis) [µg/mL] | MIC (Streptococcus pneumoniae [5]) [µg/mL] | MIC [6] [µg/mL] | MIC (Streptococcus pneumoniae [7]) [µg/mL] | MIC (Staphylococcus aureus [8]) [µg/mL] | MIC (Enterococcus faecium) [µg/mL] | Stability [9] | Stability [10] | Stability [11] | Stability [12] | IC50 [13] [µg/mL] |
| --- | --- | --- | --- | --- | --- | --- | --- | --- | --- | --- | --- | --- | --- | --- | --- |
| CCCCNc1nc(SCCCC)nc2ccc(Cl)cc12 | > 128 | > 128 | > 128 | > 128 | > 128 | > 128 | > 128 | > 128 | > 128 | > 128 |  |  |  |  |  |
| CCCCNc1nc(SCCCC)nc2ccc(-c3ccc(C(=O)O)cc3)cc12 | > 128 | > 128 | > 128 | > 128 | > 128 | > 128 | > 128 | > 128 | > 128 | > 128 |  |  |  |  |  |
| CCCCNc1nc(SCCCC)nc2c1cnn2CCCC | > 128 | > 128 | > 128 | > 128 | > 128 | > 128 | > 128 | 8 (≈ 23.8 µM) | > 128 | > 128 |  |  |  |  |  |
| CCCCNc1nc(SCCCC)nc2ccc(-c3cccc(C#N)c3)cc12 | > 128 | > 128 | > 128 | > 128 | > 128 | > 128 | > 128 | > 128 | > 128 | > 128 |  |  |  |  |  |
| CCCCNc1nc(SCCCC)nc2cc(Br)ccc12 | > 128 | > 128 | > 128 | > 128 | > 128 | > 128 | > 128 | > 128 | > 128 | > 128 |  |  |  |  |  |
| CCCCNc1nc(SCCCC)nc2ccc(Br)cc12 | > 128 | > 128 | > 128 | > 128 | > 128 | > 128 | > 128 | > 128 | > 128 | > 128 |  |  |  |  |  |
| CCCCNc1nc(SCCCC)nc2cc(F)ccc12 | > 128 | > 128 | > 128 | > 128 | > 128 | > 128 | > 128 | > 128 | > 128 | > 128 | Stable | Stable | Stable | Stable |  |
| CCCCNc1nc(SCCCC)nc2sccc12 | 8 (≈ 27.1 µM) | > 128 | 8 (≈ 27.1 µM) | > 128 | > 128 | 8 (≈ 27.1 µM) | 16 (≈ 54.1 µM) | 8 (≈ 27.1 µM) | 32 (≈ 108 µM) | > 128 |  |  |  |  | > 37 |
| CCCCNc1nc(SCCCC)nc2n[nH]cc12 | 4 (≈ 14.3 µM) | > 128 | > 128 | > 128 | > 128 | > 128 | > 128 | > 128 | > 128 | > 128 | Stable | Stable | Stable | Stable |  |
| CCCCNc1nc(SCCCC)nc2ccc(-c3ccncc3)cc12 | > 128 | > 128 | > 128 | > 128 | > 128 | > 128 | > 128 | > 128 | > 128 | > 128 |  |  |  |  |  |
| CCCCNc1nc(SCCCC)nc2ccc(NC(=O)NCC)cc12 | > 128 | > 128 | > 128 | > 128 | > 128 | > 128 | > 128 | > 128 | > 128 | > 128 |  |  |  |  |  |
| CCCCNc1nc(SCCCC)nc2ccc(F)cc12 | > 128 | > 128 | > 128 | > 128 | > 128 | > 128 | > 128 | > 128 | > 128 | > 128 |  |  |  |  |  |
| CCCCNc1nc(SCCCC)nc2ccc(-c3ccccc3)cc12 | > 128 | > 128 | > 128 | > 128 | > 128 | > 128 | > 128 | > 128 | > 128 | > 128 | Stable | Stable | Stable | Stable |  |
| CCCCNc1nc(SCCCC)nc2ccc(-c3cccc(C(=O)O)c3)cc12 | > 128 | 8 (≈ 19.5 µM) | 8 (≈ 19.5 µM) | > 128 | 8 (≈ 19.5 µM) | 16 (≈ 39.1 µM) | > 128 | 4 (≈ 9.77 µM) | 8 (≈ 19.5 µM) | 8 (≈ 19.5 µM) |  |  |  |  | > 37 |
| CCCCNc1nc(SCCCC)nc2cc(-c3cccnc3)ccc12 | > 128 | > 128 | > 128 | > 128 | > 128 | > 128 | > 128 | > 128 | > 128 | > 128 |  |  |  |  |  |
| CCCCNc1nc(SCCCC)nc2ccc(-c3cccc(CO)c3)cc12 | > 128 | > 128 | > 128 | > 128 | > 128 | > 128 | > 128 | > 128 | > 128 | > 128 |  |  |  |  |  |
| CCCCSc1nc(SCCCC)c2cc(N)ccc2n1 | > 128 | 4 (≈ 12.4 µM) | 8 (≈ 24.9 µM) | > 128 | 32 (≈ 99.5 µM) | 8 (≈ 24.9 µM) | 32 (≈ 99.5 µM) | 4 (≈ 12.4 µM) | 4 (≈ 12.4 µM) | 8 (≈ 24.9 µM) |  |  |  |  | > 37 |
| CCCCNc1nc(SCCCC)nc2ccc(-c3cccc(OC)c3)cc12 | > 128 | > 128 | > 128 | > 128 | > 128 | > 128 | > 128 | > 128 | > 128 | > 128 |  |  |  |  |  |
| CCCCSc1nc(SCCCC)c2cc(NS(=O)(=O)CC)ccc2n1 | > 128 | > 128 | > 128 | > 128 | 8 (≈ 19.3 µM) | 3 (≈ 7.25 µM) | > 128 | 4 (≈ 9.67 µM) | > 128 | 8 (≈ 19.3 µM) |  |  |  |  | > 37 |
| CCCCNc1nc(SCCCC)nc2cc(-c3ccccc3)ccc12 | > 128 | > 128 | > 128 | > 128 | > 128 | > 128 | > 128 | > 128 | > 128 | > 128 |  |  |  |  |  |
| CCCCNc1nc(SCCCC)nc2nn(CCCC)cc12 | > 128 | > 128 | > 128 | > 128 | > 128 | > 128 | > 128 | > 128 | > 128 | > 128 |  |  |  |  |  |
| CCCCNc1nc(SCCCC)nc2cc(Cl)ccc12 | > 128 | > 128 | > 128 | > 128 | > 128 | > 128 | > 128 | > 128 | > 128 | > 128 |  |  |  |  |  |
| CCCCNc1nc(SCCCC)nc2ccc(-c3cccnc3)cc12 | > 128 | > 128 | > 128 | > 128 | > 128 | > 128 | > 128 | > 128 | > 128 | > 128 |  |  |  |  |  |
| CCCCNc1nc(SCCCC)nc2ccc(-c3cn[nH]c3)cc12 | > 128 | > 128 | > 128 | > 128 | > 128 | > 128 | > 128 | > 128 | > 128 | > 128 |  |  |  |  |  |
| CCCCNc1nc(SC)nc2n[nH]cc12 | 64 (≈ 270 µM) | 64 (≈ 270 µM) | 64 (≈ 270 µM) | > 128 | > 128 | > 128 | > 128 | > 128 | 64 (≈ 270 µM) | > 128 |  |  |  |  |  |
| CC(=O)NC[C@H]1CN(c2ccc(N3CCOCC3)c(F)c2)C(=O)O1 [LINEZOLID] | 16 (≈ 47.4 µM) |  | 1 (≈ 2.96 µM) | > 64 |  |  | 4 (≈ 11.9 µM) |  |  | 4 (≈ 11.9 µM) |  |  |  |  |  |
| CN[C@H](CC(C)C)C(=O)N[C@H]1C(=O)N[C@@H](CC(N)=O)C(=O)N[C@H]2C(=O)N[C@H]3C(=O)N[C@H](C(=O)N[C@H](C(=O)O)c4cc(O)cc(O)c4-c4cc3ccc4O)[C@H](O)c3ccc(c(Cl)c3)Oc3cc2cc(c3O[C@@H]2O[C@H](CO)[C@@H](O)[C@H](O)[C@H]2O[C@H]2C[C@](C)(N)[C@H](O)[C@H](C)O2)Oc2ccc(cc2Cl)[C@H]1O [VANCOMYCIN] | > 64 | 8 (≈ 5.52 µM) |  | > 64 | 0.5 (≈ 0.345 µM) | 1 (≈ 0.69 µM) | 8 (≈ 5.52 µM) | 0.5 (≈ 0.345 µM) |  |  |  |  |  |  |  |
